In the supplement of paper PMC11368000:

Assays:
Settings in all cases: exposure time: 90 min
20084 [1] = donor line of iPSC-derived cardiomyocytes; assay: POD (EC05) for decrease in beat frequency (negative chronotrope) vs vehicle; higher = less potent (higher point of departure)
Experimental: (§1)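 Human iPSC-derived cardiomyocytes from 16 donors were exposed for 90 min at 37 °C to each PFAS at 0.1, 1, 10 and 100 µM in 0.5% DMSO, 384-well plates. Kinetic Ca2+ flux (FLIPR) and Hoechst nuclei counts were normalised to vehicle wells and fitted with a hierarchical Bayesian Hill model to give donor-specific PODs: EC05 for beat-rate increase or decrease and for decay-to-rise ratio increase (QT proxy), EC95 for peak-frequency loss (asystole), EC10 for total cell number loss. 0.03 µM is the lower bound.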

1565 = donor line of iPSC-derived cardiomyocytes; assay: as above
Experimental: as §1

1083 = donor line of iPSC-derived cardiomyocytes; assay: as above
Experimental: as §1

1518 = donor line of iPSC-derived cardiomyocytes; assay: as above
Experimental: as §1

1535 = donor line of iPSC-derived cardiomyocytes; assay: as above
Experimental: as §1

11235 = donor line of iPSC-derived cardiomyocytes; assay: as above
Experimental: as §1

1368 = donor line of iPSC-derived cardiomyocytes; assay: as above
Experimental: as §1

1118 = donor line of iPSC-derived cardiomyocytes; assay: as above
Experimental: as §1

20032 = donor line of iPSC-derived cardiomyocytes; assay: as above
Experimental: as §1

1531 = donor line of iPSC-derived cardiomyocytes; assay: as above
Experimental: as §1

30145 [2] = donor line of iPSC-derived cardiomyocytes; assay: as above
Experimental: as §1

1434 = donor line of iPSC-derived cardiomyocytes; assay: as above
Experimental: as §1

30171 = donor line of iPSC-derived cardiomyocytes; assay: as above
Experimental: as §1

1309 = donor line of iPSC-derived cardiomyocytes; assay: as above
Experimental: as §1

1516 [3] = donor line of iPSC-derived cardiomyocytes; assay: as above
Experimental: as §1

1392 [4] = donor line of iPSC-derived cardiomyocytes; assay: as above
Experimental: as §1

20084 [5] = assay: POD (EC10) for decrease in total cell number (cytotoxicity) vs vehicle; higher = less potent (higher point of departure)
Experimental: as §1

30145 [6] = assay: as above
Experimental: as §1

1516 [7] = assay: as above
Experimental: as §1

1392 [8] = assay: as above
Experimental: as §1

SMILES | POD vs vehicle 20084 [1] | POD vs vehicle 1565 | POD vs vehicle 1083 | POD vs vehicle 1518 | POD vs vehicle 1535 | POD vs vehicle 11235 | POD vs vehicle 1368 | POD vs vehicle 1118 | POD vs vehicle 20032 | POD vs vehicle 1531 | POD vs vehicle 30145 [2] | POD vs vehicle 1434 | POD vs vehicle 30171 | POD vs vehicle 1309 | POD vs vehicle 1516 [3] | POD vs vehicle 1392 [4] | POD vs vehicle 20084 [5] | POD vs vehicle 30145 [6] | POD vs vehicle 1516 [7] | POD vs vehicle 1392 [8]
COC(=O)C(F)(F)C(F)(F)OC(F)(C(F)(F)F)C(F)(F)OC(F)=C(F)F (stereo unspecified) [Methyl_perfluoro(3-(1-ethenyloxypropan-2-yloxy)propanoate)] | > 100 µM | > 100 µM | > 100 µM | > 100 µM | > 100 µM | > 100 µM | > 100 µM | > 100 µM | > 100 µM | > 100 µM | > 100 µM | > 100 µM | > 100 µM | > 100 µM | > 100 µM | > 100 µM | > 100 µM | > 100 µM | > 100 µM | > 100 µM
O=C(O)C(F)(F)OC(F)(F)C(F)(F)OC(F)(F)F [Perfluoro-3,6-dioxaheptanoic_acid] | > 100 µM | > 100 µM | > 100 µM | > 100 µM | > 100 µM | > 100 µM | > 100 µM | > 100 µM | > 100 µM | > 100 µM | > 100 µM | > 100 µM | > 100 µM | > 100 µM | > 100 µM | > 100 µM | > 100 µM | > 100 µM | > 100 µM | > 100 µM
OCC(F)(F)OC(F)(F)C(F)(F)OC(F)(F)C(F)(F)OC(F)(F)F [Fluorinated_triethylene_glycol_monomethyl_ether] | > 100 µM | > 100 µM | > 100 µM | > 100 µM | > 100 µM | > 100 µM | > 100 µM | 2.52 µM | > 100 µM | > 100 µM | > 100 µM | 25.3 µM | > 100 µM | > 100 µM | > 100 µM | > 100 µM | 0.358 µM | > 100 µM | > 100 µM | 2.04 µM
OCC(O)CC(F)(F)C(F)(F)C(F)(F)C(F)(F)C(F)(F)C(F)(F)C(F)(F)C(F)(F)F (stereo unspecified) [1-(Perfluorofluorooctyl)propane-2,3-diol] | > 100 µM | > 100 µM | 24.4 µM | > 100 µM | > 100 µM | > 100 µM | > 100 µM | 0.258 µM | > 100 µM | > 100 µM | > 100 µM | > 100 µM | > 100 µM | > 100 µM | > 100 µM | > 100 µM | > 100 µM | > 100 µM | > 100 µM | > 100 µM
O=C(O)C(F)(F)OC(F)(F)C(F)(F)OC(F)(F)C(=O)O [Perfluoro-3,6-dioxaoctane-1,8-dioic_acid] | > 100 µM | > 100 µM | > 100 µM | > 100 µM | > 100 µM | > 100 µM | > 100 µM | > 100 µM | > 100 µM | > 100 µM | > 100 µM | > 100 µM | > 100 µM | > 100 µM | > 100 µM | > 100 µM | > 100 µM | > 100 µM | > 100 µM | > 100 µM
OCCC(F)(F)C(F)(F)C(F)(F)C(F)(F)F [4:2 Fluorotelomer alcohol] | > 100 µM | > 100 µM | > 100 µM | > 100 µM | > 100 µM | > 100 µM | > 100 µM | 22.9 µM | > 100 µM | > 100 µM | > 100 µM | > 100 µM | > 100 µM | > 100 µM | > 100 µM | > 100 µM | > 100 µM | 49.9 µM | > 100 µM | > 100 µM
CN(CCO)S(=O)(=O)C(F)(F)C(F)(F)C(F)(F)C(F)(F)C(F)(F)C(F)(F)C(F)(F)C(F)(F)F [N-Methyl-N-(2-hydroxyethyl)perfluorooctanesulfonamide] | > 100 µM | > 100 µM | 16.9 µM | > 100 µM | > 100 µM | 35.4 µM | > 100 µM | – | > 100 µM | > 100 µM | > 100 µM | 42.2 µM | 20.2 µM | > 100 µM | > 100 µM | > 100 µM | > 100 µM | > 100 µM | > 100 µM | > 100 µM
OCC(F)(F)C(F)(F)C(F)(F)F [Heptafluorobutanol] | > 100 µM | > 100 µM | > 100 µM | > 100 µM | > 100 µM | > 100 µM | > 100 µM | > 100 µM | > 100 µM | > 100 µM | > 100 µM | > 100 µM | > 100 µM | > 100 µM | > 100 µM | > 100 µM | > 100 µM | > 100 µM | > 100 µM | > 100 µM
O=S(=O)(O)C(F)(F)C(F)(F)C(F)(F)C(F)(F)C(F)(F)C(F)(F)C(F)(F)C(F)(F)F [Perfluorooctanesulfonic_acid] | 80.7 µM | > 100 µM | > 100 µM | > 100 µM | > 100 µM | 0.581 µM | > 100 µM | 10.6 µM | > 100 µM | 59.1 µM | > 100 µM | 13.3 µM | 6.94 µM | > 100 µM | 20.4 µM | > 100 µM | > 100 µM | > 100 µM | > 100 µM | > 100 µM
OCC(F)(F)C(F)(F)C(F)(F)C(F)F [1H,1H,5H-Perfluoropentanol] | 35.1 µM | > 100 µM | > 100 µM | > 100 µM | > 100 µM | > 100 µM | > 100 µM | 22.8 µM | > 100 µM | 45.9 µM | > 100 µM | > 100 µM | > 100 µM | > 100 µM | > 100 µM | > 100 µM | > 100 µM | > 100 µM | > 100 µM | > 100 µM
O=C(O)C(F)(F)C(F)(F)C(F)(F)C(F)(F)C(F)(F)F [Perfluorohexanoic_acid] | > 100 µM | > 100 µM | > 100 µM | > 100 µM | > 100 µM | > 100 µM | > 100 µM | > 100 µM | > 100 µM | > 100 µM | > 100 µM | > 100 µM | > 100 µM | > 100 µM | > 100 µM | > 100 µM | > 100 µM | > 100 µM | > 100 µM | > 100 µM
O=C(O)C(F)(F)C(F)(F)C(F)(F)OC(F)(F)F [Perfluoro(4-methoxybutanoic)_acid] | > 100 µM | > 100 µM | > 100 µM | > 100 µM | > 100 µM | > 100 µM | > 100 µM | > 100 µM | > 100 µM | > 100 µM | > 100 µM | > 100 µM | > 100 µM | > 100 µM | > 100 µM | > 100 µM | > 100 µM | > 100 µM | > 100 µM | > 100 µM
O=S(=O)(OCC(F)(F)F)C(F)(F)C(F)(F)C(F)(F)C(F)(F)F [2,2,2-Trifluoroethyl_perfluorobutanesulfonate] | > 100 µM | > 100 µM | > 100 µM | > 100 µM | > 100 µM | > 100 µM | > 100 µM | > 100 µM | > 100 µM | > 100 µM | > 100 µM | > 100 µM | 49.1 µM | > 100 µM | > 100 µM | > 100 µM | > 100 µM | > 100 µM | > 100 µM | > 100 µM
N=C(N)C(F)(F)C(F)(F)C(F)(F)C(F)(F)C(F)(F)C(F)(F)C(F)(F)F [Perfluorooctanamidine] | > 100 µM | > 100 µM | > 100 µM | > 100 µM | 2.86 µM | 0.499 µM | > 100 µM | 0.128 µM | > 100 µM | > 100 µM | > 100 µM | > 100 µM | > 100 µM | > 100 µM | > 100 µM | > 100 µM | > 100 µM | > 100 µM | > 100 µM | > 100 µM
O=P(O)(O)CCC(F)(F)C(F)(F)C(F)(F)C(F)(F)C(F)(F)C(F)(F)C(F)(F)C(F)(F)F [((Perfluorooctyl)ethyl)phosphonic_acid] | > 100 µM | > 100 µM | > 100 µM | > 100 µM | > 100 µM | > 100 µM | > 100 µM | > 100 µM | > 100 µM | > 100 µM | > 100 µM | > 100 µM | > 100 µM | > 100 µM | > 100 µM | > 100 µM | > 100 µM | > 100 µM | > 100 µM | > 100 µM
O=C(O)C(F)(F)C(F)(F)C(F)(F)C(F)(F)C(F)(F)C(F)(F)F [Perfluoroheptanoic_acid] | > 100 µM | > 100 µM | > 100 µM | > 100 µM | > 100 µM | 20.6 µM | > 100 µM | 39.8 µM | > 100 µM | 78.7 µM | > 100 µM | > 100 µM | > 100 µM | > 100 µM | 68.1 µM | > 100 µM | 56.8 µM | > 100 µM | – | > 100 µM
OCC(F)(F)C(F)(F)C(F)(F)C(F)(F)C(F)(F)C(F)(F)F [6:1 Fluorotelomer alcohol] | > 100 µM | > 100 µM | 24.6 µM | > 100 µM | > 100 µM | 21.5 µM | 74.9 µM | 0.554 µM | > 100 µM | > 100 µM | > 100 µM | 21.9 µM | 24.3 µM | > 100 µM | > 100 µM | > 100 µM | > 100 µM | > 100 µM | – | > 100 µM
O=C(O)C(F)(F)C(F)(F)C(F)(F)C(F)(F)C(F)(F)C(F)(F)C(F)(F)C(F)(F)C(F)(F)C(F)(F)F [Perfluoroundecanoic_acid] | > 100 µM | > 100 µM | > 100 µM | 1.19 µM | > 100 µM | 0.395 µM | > 100 µM | > 100 µM | > 100 µM | > 100 µM | > 100 µM | > 100 µM | 0.96 µM | > 100 µM | – | > 100 µM | > 100 µM | > 100 µM | > 100 µM | > 100 µM
